The values that follow come from PMC11109052, “Metabolism characterization and toxicity of N-hydap, a marine candidate drug for lung cancer therapy by LC–MS method” (Natural Products and Bioprospecting, 2024).

In data set [1] the test system is Cyp3a11. Nature of the data set: Real-time PCR mRNA level after 7 days gavage: Cyp3a11 (human homolog CYP3A4). The data set is classed as in vivo, mice. The arrangement: key to CYP3A4 mNA expression: ↑: up-regulation; ↓: down-regulation; –: no change. Here is the method:
(§1) Mice were randomly divided into four groups, with eight animals in each group. The mice received oral pretreatment with N-hydap for 7 days at doses of 2, 5, and 10 mg/kg/day, which were considered as the low dose, medium dose, and high dose, respectively. Correspondingly, the control group received PBS. On the 8th day, the liver and kidneys were removed, and organs from eight mice per group were combined to prepare MLMs and MKMs using the detailed procedures above. Subsequently, we determined the activity of CYP and UGT enzymes by specific substrate metabolized with MLMs (0.5 mg/mL) and MKMs (0.2 mg/mL) in vitro. Specifically, the following selective substrates were used for the respective enzymes: PH (1 μM) for CYP1A2, DIC (1 μM) for CYP2C9, MP (90 μM) for CYP2C19, DM (1 μM) for CYP2D6, CZX (10 μM) for CYP2E1, Tes (1 μM) for CYP3A4, SN38 (1 μM) for UGT1A1, CACD (100 μM) for UGT1A3, Sero (20 μM) for UGT1A6, and Prop (1 μM) for UGT1A9. All substrates were dissolved in methanol or DMSO. The incubation procedure was carried out as mentioned above, and the reaction was terminated with VER (20 ng/mL) in ESI+ mode and CLP (200 ng/mL) in ESI− mode. In the ex vivo experiments, the activity of enzymes was measured by quantifying the production of various metabolites (nM/mg protein/min). The metabolites and their corresponding enzymes are as follows: APAP from PH, 4-OH-DIC from DIC, 4-OH-MP from MP, DXO from DM, 6-OH-CZX from CZX, 6-OH-Tes from Tes, SN38-G from SN38, CACD-G from CACD, Sero-G from Sero, Prop-G from Prop. The measurements were performed using multiple reaction monitoring (MRM) transitions, which are specific mass spectrometry transitions used for quantification. The optimized parameters for each metabolite, such as declustering potential and collision energy, were described in Supplementary Table 1. All experiments were conducted in triplicate, to ensure accuracy and reproducibility.
Total RNA from liver and kidney samples taken after 7 days of N-hydap gavage was extracted using the Animal Total RNA Isolation Kit (Foregene, Chengdu, Sichuan, China) following the manufacturer’s instructions. The concentrations of total RNA were determined by a nucleic acid concentration tester at 260/280 nm. A HiScript III RT SuperMix for qPCR (+ gDNA wiper) (Vazyme, Nanjing, Jiangsu, China) was used to measure the concentration of the synthesized cDNA. ChamQ SYBR qPCR Master Mix (Vazyme, Nanjing, Jiangsu, China) and detection were performed using a Light Cycler 480 II (ROCHE, Basel, Switzerland). Real-time PCR was used to analyze the relative mRNA levels of Cyp1a2, Cyp2b10, Cyp2c39, Cyp2d22, Cyp2e1, Cyp3a11, Ugt1a1, Ugt1a6a and Ugt1a9 (human homologs: CYP1A2, CYP2B6, CYP2C19, CYP2D6, CYP2E1, CYP3A4, UGT1A1, UGT1A6, and UGT1A9) in the liver, kidneys, and intestines. […]
Background: Real-time PCR tracks product formation cycle by cycle.

Data set [2] has as its target T1, UGT1A1 (Homo sapiens, UniProt P22309).
T1 construct: purchased Cypex (Scotland, UK)
Nature of the data set: Incubation with recombinant human UGT isoforms: UGT1A1. The data set is classed as in vitro ADME. The following applies: recombinant UGT 2 μg/mL. The protocol: Incubation of N-hydap (2.5 μM) with eight recombinant human CYP enzymes (CYP1A2, CYP2B6, CYP2C9, CYP2C19, CYP2D6, CYP3A4, CYP4A11 and CYP4F2) at three enzyme concentrations (2, 4, and 20 μg/mL) was conducted following the same procedure as described above for microsomes. Subsequently, incubation with N-hydap (1, 2.5, and 6 μM) and twelve recombinant human UGT isoforms (UGT1A1, UGT1A3, UGT1A4, UGT1A6, UGT1A7, UGT1A8, UGT1A9, UGT1A10, UGT2B4, UGT2B7, UGT2B15 and UGT2B17) was performed, with the enzyme concentration used at 2 μg/mL. All reactions were carried out in triplicate.

In data set [3] the test system is CYP2B6. Nature of the data set: Western blot protein level after 7 days gavage: CYP2B6. The data set is classed as in vivo. The note with it: mice, p.o. 7 days; liver. The protocol:
Mice were randomly divided into four groups, with eight animals in each group. The mice received oral pretreatment with N-hydap for 7 days at doses of 2, 5, and 10 mg/kg/day, which were considered as the low dose, medium dose, and high dose, respectively. Correspondingly, the control group received PBS. On the 8th day, the liver and kidneys were removed, and organs from eight mice per group were combined to prepare MLMs and MKMs using the detailed procedures above. Subsequently, we determined the activity of CYP and UGT enzymes by specific substrate metabolized with MLMs (0.5 mg/mL) and MKMs (0.2 mg/mL) in vitro. […] In the ex vivo experiments, the activity of enzymes was measured by quantifying the production of various metabolites (nM/mg protein/min). […] The measurements were performed using multiple reaction monitoring (MRM) transitions, which are specific mass spectrometry transitions used for quantification. […]
After 7 days of N-hydap gavage, the liver and kidney tissues were lysed using RIPA buffer supplemented with a 1% protease inhibitor cocktail. […] Western blot signals were detected using an ECL chemiluminescence detection agent. The relative intensity of each protein band was scanned and quantified using Image J software.
Background: A western blot detects proteins with antibodies after separation by electrophoresis.

Data set [4] deals with Ugt1a6a. In words: Real-time PCR mRNA level after 7 days gavage: Ugt1a6a (human homolog UGT1A6). The data set is classed as in vivo, mice. The arrangement: key to UGT1A6 mNA expression: ↑: up-regulation; ↓: down-regulation; –: no change. The protocol:
as §1, with “The optimized parameters for each metabolite, such as declustering potential and collision energy, were described in Supplementary Table 1. All experiments were conducted in triplicate, to ensure accuracy and reproducibility.” left out
Total RNA from liver and kidney samples taken after 7 days of N-hydap gavage was extracted using the Animal Total RNA Isolation Kit (Foregene, Chengdu, Sichuan, China) following the manufacturer’s instructions. The concentrations of total RNA were determined by a nucleic acid concentration tester at 260/280 nm. […]

Setting [5] is: mice, 2, 5, 10 mg/kg p.o. 7 days, liver and kidneys.

Molecules are shown by their SMILES.

T1 sequence (P22309 26-533): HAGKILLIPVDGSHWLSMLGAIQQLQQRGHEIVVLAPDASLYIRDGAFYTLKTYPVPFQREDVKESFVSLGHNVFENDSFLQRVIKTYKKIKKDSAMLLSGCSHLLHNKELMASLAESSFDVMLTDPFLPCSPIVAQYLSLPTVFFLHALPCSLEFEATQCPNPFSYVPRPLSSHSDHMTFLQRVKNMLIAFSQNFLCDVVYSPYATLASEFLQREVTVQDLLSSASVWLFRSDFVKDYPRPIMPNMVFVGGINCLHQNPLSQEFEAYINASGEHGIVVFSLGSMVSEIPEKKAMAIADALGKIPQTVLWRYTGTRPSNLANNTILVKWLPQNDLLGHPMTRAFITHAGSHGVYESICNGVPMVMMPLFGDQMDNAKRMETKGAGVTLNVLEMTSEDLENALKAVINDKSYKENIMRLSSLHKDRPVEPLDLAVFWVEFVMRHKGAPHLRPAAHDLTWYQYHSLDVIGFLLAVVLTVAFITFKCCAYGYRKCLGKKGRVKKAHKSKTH

For the molecule `CC1CCC2C(C=CC(C)C2C(=O)c2c(O)c(C3(O)CCC(O)C4OC43)cn(O)c2=O)C1` (stereo not drawn) [N-hydap, N-Hydroxyapiosporamide], the “CYP3A4 mNA expression” value in data set [1] (Kidney) and in data set [1] (Liver) was “↑” each time. Further, the “mRNA levels of Cyp3a11” value in data set [1] (mice, 2, 5, 10 mg/kg p.o. 7 days, intestines) is on record as “slight reduction”. In data set [1] (setting [5]), the “increase of mRNA levels of Cyp3a11” value is 78%-160%. Further, the “contribution of UGT1A1 to formation of N-hydap-G” value in data set [2] is recorded as “secondary contributors”. Besides, in data set [3], the “increase of protein levels of CYP2B6” value is recorded as 92%. Besides, the “UGT1A6 mNA expression” value in data set [4] (Kidney) and in data set [4] (Liver) was “↑” in each case. Besides, the “mRNA levels of Ugt1a6a” value in data set [4] (setting [5]) was “modest increase”.
